Numbers after ± are expanded uncertainties.
Test: xn = mol fraction of the nth substance listed
Settings: 101 kPa, Liquid; for viscosity: Capillary tube (Ostwald / Ubbelohde) method; for speed of sound: Pulse-echo method; for mass density: Pycnometric method

COc1ccc(C=O)cc1 [4-methoxybenzaldehyde] + Cc1cccc(O)c1
Settings	mass density [kg/m3]	speed of sound [m/s]	viscosity [mPa·s]
303.15 K, x1 = 0.0883	1031.6 ± 10	1487.6 ± 1.6	8.513 ± 0.059
303.15 K, x1 = 0.1789	1037.8 ± 10	1507.8 ± 1.6	8.028 ± 0.056
303.15 K, x1 = 0.2719	1044 ± 10	1528.6 ± 1.6	7.569 ± 0.053
303.15 K, x1 = 0.3674	1052.6 ± 10	1550.3 ± 1.6	7.051 ± 0.05
303.15 K, x1 = 0.4656	1060.7 ± 11	1572.5 ± 1.6	6.528 ± 0.047
303.15 K, x1 = 0.5665	1068 ± 11	1595.6 ± 1.6	5.969 ± 0.043
303.15 K, x1 = 0.6703	1076.4 ± 11	1619.1 ± 1.6	5.331 ± 0.039
303.15 K, x1 = 0.777	1088 ± 11	1643.4 ± 1.6	4.593 ± 0.034
303.15 K, x1 = 0.8869	1104.5 ± 11	1668.4 ± 1.6	3.93 ± 0.029
303.15 K, x1 = 1	1125.2 ± 11	1694.3 ± 1.6	3.251 ± 0.024
308.15 K, x1 = 0.0883	1026.7 ± 10	1471.4 ± 1.6	7.108 ± 0.05
308.15 K, x1 = 0.1789	1032.4 ± 10	1490.9 ± 1.6	6.747 ± 0.048
308.15 K, x1 = 0.2719	1038 ± 10	1511 ± 1.6	6.421 ± 0.046
308.15 K, x1 = 0.3674	1045.4 ± 10	1532.1 ± 1.6	6.046 ± 0.044
308.15 K, x1 = 0.4656	1052.3 ± 10	1553.4 ± 1.6	5.659 ± 0.041
308.15 K, x1 = 0.5665	1060 ± 11	1575.6 ± 1.6	5.237 ± 0.038
308.15 K, x1 = 0.6703	1066.1 ± 11	1598.2 ± 1.6	4.741 ± 0.035
308.15 K, x1 = 0.777	1077.2 ± 11	1621.6 ± 1.6	4.151 ± 0.031
308.15 K, x1 = 0.8869	1092.6 ± 11	1645.7 ± 1.6	3.648 ± 0.027
308.15 K, x1 = 1	1111.6 ± 11	1670.7 ± 1.6	3.131 ± 0.023
313.15 K, x1 = 0.0883	1022.8 ± 10	1455.7 ± 1.6	5.894 ± 0.043
313.15 K, x1 = 0.1789	1028.4 ± 10	1473.1 ± 1.6	5.629 ± 0.041
313.15 K, x1 = 0.2719	1034.8 ± 10	1490.7 ± 1.6	5.393 ± 0.04
313.15 K, x1 = 0.3674	1042.8 ± 10	1509.2 ± 1.6	5.13 ± 0.038
313.15 K, x1 = 0.4656	1049.1 ± 10	1528.1 ± 1.6	4.858 ± 0.036
313.15 K, x1 = 0.5665	1056.8 ± 11	1547.6 ± 1.6	4.555 ± 0.034
313.15 K, x1 = 0.6703	1064.4 ± 11	1567.4 ± 1.6	4.181 ± 0.031
313.15 K, x1 = 0.777	1075.1 ± 11	1588.1 ± 1.6	3.724 ± 0.028
313.15 K, x1 = 0.8869	1090.9 ± 11	1609.3 ± 1.6	3.34 ± 0.025
313.15 K, x1 = 1	1109.5 ± 11	1631.3 ± 1.6	2.961 ± 0.022
318.15 K, x1 = 0.0883	1019.2 ± 10	1437.7 ± 1.6	4.849 ± 0.036
318.15 K, x1 = 0.1789	1026.5 ± 10	1449.6 ± 1.6	4.655 ± 0.035
318.15 K, x1 = 0.2719	1033.4 ± 10	1461.5 ± 1.6	4.47 ± 0.033
318.15 K, x1 = 0.3674	1041.6 ± 10	1474.1 ± 1.6	4.272 ± 0.032
318.15 K, x1 = 0.4656	1048.2 ± 10	1487 ± 1.6	4.085 ± 0.03
318.15 K, x1 = 0.5665	1055.2 ± 11	1500.1 ± 1.6	3.868 ± 0.029
318.15 K, x1 = 0.6703	1062.5 ± 11	1513.5 ± 1.6	3.586 ± 0.027
318.15 K, x1 = 0.777	1073.3 ± 11	1527.5 ± 1.6	3.236 ± 0.024
318.15 K, x1 = 0.8869	1088.4 ± 11	1542 ± 1.6	2.949 ± 0.022
318.15 K, x1 = 1	1104.7 ± 11	1557 ± 1.6	2.682 ± 0.02

COc1ccc(C=O)cc1 [4-methoxybenzaldehyde] + Cc1ccccc1O
Settings	mass density [kg/m3]	speed of sound [m/s]	viscosity [mPa·s]
303.15 K, x1 = 0.0875	1039.2 ± 10	1507.7 ± 1.6	7.163 ± 0.051
303.15 K, x1 = 0.1774	1044.2 ± 10	1526.3 ± 1.6	6.824 ± 0.049
303.15 K, x1 = 0.2699	1050.1 ± 10	1545.5 ± 1.6	6.519 ± 0.047
303.15 K, x1 = 0.3651	1058.5 ± 11	1565 ± 1.6	6.202 ± 0.045
303.15 K, x1 = 0.4631	1067.1 ± 11	1585.2 ± 1.6	5.778 ± 0.042
303.15 K, x1 = 0.564	1074.3 ± 11	1611.2 ± 1.6	5.319 ± 0.039
303.15 K, x1 = 0.668	1081.3 ± 11	1637 ± 1.6	4.811 ± 0.036
303.15 K, x1 = 0.7753	1093.2 ± 11	1658.9 ± 1.6	4.261 ± 0.032
303.15 K, x1 = 0.8859	1106.6 ± 11	1681.5 ± 1.6	3.758 ± 0.028
303.15 K, x1 = 1	1125.2 ± 11	1694.3 ± 1.6	3.251 ± 0.024
308.15 K, x1 = 0.0875	1033.8 ± 10	1488.3 ± 1.6	5.762 ± 0.042
308.15 K, x1 = 0.1774	1038.2 ± 10	1506.2 ± 1.6	5.54 ± 0.041
308.15 K, x1 = 0.2699	1043.4 ± 10	1524.9 ± 1.6	5.361 ± 0.04
308.15 K, x1 = 0.3651	1050.6 ± 10	1544.2 ± 1.6	5.168 ± 0.038
308.15 K, x1 = 0.4631	1058.4 ± 11	1564 ± 1.6	4.874 ± 0.036
308.15 K, x1 = 0.564	1065 ± 11	1589.4 ± 1.6	4.56 ± 0.034
308.15 K, x1 = 0.668	1071.5 ± 11	1613.8 ± 1.6	4.196 ± 0.031
308.15 K, x1 = 0.7753	1082.8 ± 11	1635.2 ± 1.6	3.815 ± 0.029
308.15 K, x1 = 0.8859	1095.3 ± 11	1657.2 ± 1.6	3.475 ± 0.026
308.15 K, x1 = 1	1111.6 ± 11	1670.7 ± 1.6	3.131 ± 0.023
313.15 K, x1 = 0.0875	1030.2 ± 10	1470.7 ± 1.6	4.162 ± 0.032
313.15 K, x1 = 0.1774	1034.7 ± 10	1486.3 ± 1.6	4.072 ± 0.031
313.15 K, x1 = 0.2699	1040.9 ± 10	1502.6 ± 1.6	4.007 ± 0.03
313.15 K, x1 = 0.3651	1047.3 ± 10	1519.6 ± 1.6	3.936 ± 0.03
313.15 K, x1 = 0.4631	1055.4 ± 11	1536.9 ± 1.6	3.806 ± 0.029
313.15 K, x1 = 0.564	1062.1 ± 11	1560.3 ± 1.6	3.673 ± 0.028
313.15 K, x1 = 0.668	1070 ± 11	1580 ± 1.6	3.494 ± 0.026
313.15 K, x1 = 0.7753	1082.1 ± 11	1598.1 ± 1.6	3.291 ± 0.025
313.15 K, x1 = 0.8859	1094.9 ± 11	1617.6 ± 1.6	3.126 ± 0.024
313.15 K, x1 = 1	1109.5 ± 11	1631.3 ± 1.6	2.961 ± 0.022
318.15 K, x1 = 0.0875	1026.3 ± 10	1449.6 ± 1.6	2.269 ± 0.019
318.15 K, x1 = 0.1774	1031.9 ± 10	1460.1 ± 1.6	2.313 ± 0.019
318.15 K, x1 = 0.2699	1038.3 ± 10	1470.9 ± 1.6	2.363 ± 0.019
318.15 K, x1 = 0.3651	1044.3 ± 10	1482.2 ± 1.6	2.414 ± 0.019
318.15 K, x1 = 0.4631	1052.8 ± 10	1493.9 ± 1.6	2.451 ± 0.019
318.15 K, x1 = 0.564	1059.5 ± 11	1511.3 ± 1.6	2.496 ± 0.019
318.15 K, x1 = 0.668	1067.7 ± 11	1524.3 ± 1.6	2.543 ± 0.02
318.15 K, x1 = 0.7753	1078.8 ± 11	1536.6 ± 1.6	2.589 ± 0.02
318.15 K, x1 = 0.8859	1090.1 ± 11	1549.5 ± 1.6	2.631 ± 0.02
318.15 K, x1 = 1	1104.7 ± 11	1557 ± 1.6	2.682 ± 0.02

Cc1ccc(O)cc1 [4-methylphenol] + COc1ccc(C=O)cc1
x2 = 0
Settings	mass density [kg/m3]	speed of sound [m/s]	viscosity [mPa·s]
303.15 K	1026.5 ± 10	1468.4 ± 2.3	9.54 ± 0.11
308.15 K	1022 ± 10	1455.8 ± 2.3	8.119 ± 0.09
313.15 K	1018.1 ± 10	1443.7 ± 2.3	6.741 ± 0.076
318.15 K	1013.9 ± 10	1432.7 ± 2.3	5.469 ± 0.062
